Values of other authors as cited in patent publication US12630504B2, “Phenethylamine derivatives, compositions, and methods of use” (CYBIN IRL LIMITED, priority 2020, dated 2026).

Structure (SMILES) | biological activity (due to extensive first-pass metabolism) | oral dose at which orally active (oral, only at high doses owing to low brain bioavailability)
NCCc1ccc2c(c1)OCO2 [MDPEA, 3,4-methylenedioxyphenethylamine] | biologically inactive | 
COc1cc(CCN)cc(OC)c1OC [Mescaline, 3,4,5-trimethoxyphenethylamine] |  | ~300 mg
